The source of these data is US6943195B2, “Cycloalkenone derivative” (Nikken Chemicals Co., Ltd, priority 2001, dated 2005).

pIC50: −log10 of the molar value.

Assay [1] relates to Type IV PDE. Nature of the assay: PDE IV inhibitory activity (Test Example 1). The following applies: PDE IV versus PDE III, compared with the racemate. Format: biochemical, rat. The protocol:
(§1) To investigate the PDE inhibitory activity and selectivity of the compound, Type I, Type III, Type IV and Type V, that is, four types of PDE isozymes were prepared Trends Pharmacol. Sci. (TiPS), vol. 12, 19-27(1991). The Type I PDE used was one purchased from Sigma. Further, the Type III, Type IV and Type V PDE isozymes used were those partially purified from the blood platelets (Type III and Type V) or neutrophils (Type IV) taken from rats. Each enzyme source was homogenized in a buffer (pH6.5) containing 20 mM Bis-Tris, EDTA (ethylene diamine tetraacetate) 2 mM, PMSF (phenylmethylsulfonyl fluoride) 0.1 mM, 2-mercaptoethanol 5 mM, pepstatin 0.001 mM, and leupeptin 0.01 mM and centrifuged at 30000×G for 30 minutes. The centrifuged supernatent was passed through an ion exchange column (Q Sepharose Fast Flow, made by Pharmacia) and eluted by 0-1M sodium acetate. The partially purified isozyme was identified by investigating the effects of known selective inhibitors.
(§2) The tested compound was dissolved in DMSO (dimethylsulfoxide) and added to 50 mM tris-HCl buffer containing 5 mM […]. To this reaction solution, the above PDE isozyme and ^3H-cAMP (when Type III or Type IV of PDE) or ^3H-cGMP (when Type I or Type V of PDE) was added, as a substrate, and the mixture reacted at 30° C. for 30 minutes. After the reaction, the reaction mixture was placed in a 100° C. boiling solution for 5 minutes to stop the reaction. The nucleotide produced by the PDE was decomposed by 5′-nucleotidase into ^3H-adenosine or ^3H-guanosine. The unreacted substrate and reaction product were passed through an ion exchange column (QAE Sephadex, made by Pharmacia)to separate them. The radioactivity of the eluted ^3H-nucleoside was measured by a liquid sintillation counter. The inhibitory activity of each tested compound was indicated by the IC50 value (μM). The inhibitory activity against Type IV was shown in Table 2, while the inhibitory activity against Type III was shown in Table 3. Further, the inhibitory activity of each test compound to Type I and Type V was less than 1/10 to Type IV.

Assay [2] has as its system T1, Type IV PDE.
T1 construct: PDE IV partially purified from rat neutrophils, 3H-cAMP substrat; PDE IV from rat neutrophils, 3H-cAMP substrate; other: ratio to racemate
Nature of the assay: PDE IV inhibitory activity (Test Example 1). To be noted: for pIC50: 3H-cAMP substrate; for PDE IV inhibitory activity relative to that of the racemate: ratio to racemate. Format: biochemical, rat. The protocol:
as §1, §2

For another assay, the target named is T2, Type III PDE (Rattus norvegicus, UniProt Q62865).
T2 construct: from tissue; host or cells: rat blood platelets
T2 sequence (Q62865 1-1141): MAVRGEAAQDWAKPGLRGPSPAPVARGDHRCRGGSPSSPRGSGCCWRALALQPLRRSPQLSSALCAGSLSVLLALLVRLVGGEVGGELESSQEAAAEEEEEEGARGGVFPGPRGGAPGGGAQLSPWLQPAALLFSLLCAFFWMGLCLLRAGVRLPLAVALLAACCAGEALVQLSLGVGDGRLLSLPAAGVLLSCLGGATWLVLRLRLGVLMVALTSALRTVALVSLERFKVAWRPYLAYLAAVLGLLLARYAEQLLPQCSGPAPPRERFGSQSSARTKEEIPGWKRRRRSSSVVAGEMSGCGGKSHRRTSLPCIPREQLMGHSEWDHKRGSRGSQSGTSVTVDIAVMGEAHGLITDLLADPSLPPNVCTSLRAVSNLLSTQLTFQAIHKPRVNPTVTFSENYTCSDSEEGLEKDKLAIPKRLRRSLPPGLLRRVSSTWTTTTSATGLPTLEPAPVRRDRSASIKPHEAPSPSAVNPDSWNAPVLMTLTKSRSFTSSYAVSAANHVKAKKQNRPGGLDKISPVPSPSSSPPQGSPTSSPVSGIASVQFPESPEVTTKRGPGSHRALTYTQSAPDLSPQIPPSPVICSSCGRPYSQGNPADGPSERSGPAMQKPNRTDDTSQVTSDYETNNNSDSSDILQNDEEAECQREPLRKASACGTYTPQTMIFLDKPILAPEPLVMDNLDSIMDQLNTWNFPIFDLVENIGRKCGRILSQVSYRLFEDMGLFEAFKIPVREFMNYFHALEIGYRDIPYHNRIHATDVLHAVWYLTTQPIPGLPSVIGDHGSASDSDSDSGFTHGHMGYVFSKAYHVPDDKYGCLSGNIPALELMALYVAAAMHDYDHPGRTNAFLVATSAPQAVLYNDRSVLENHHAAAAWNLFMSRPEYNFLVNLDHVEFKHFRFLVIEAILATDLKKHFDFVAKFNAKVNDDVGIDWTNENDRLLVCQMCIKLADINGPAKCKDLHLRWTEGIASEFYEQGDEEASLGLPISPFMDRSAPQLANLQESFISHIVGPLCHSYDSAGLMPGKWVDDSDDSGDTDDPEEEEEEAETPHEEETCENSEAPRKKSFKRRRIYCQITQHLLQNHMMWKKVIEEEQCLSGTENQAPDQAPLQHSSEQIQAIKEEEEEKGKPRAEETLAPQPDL
Put plainly: PDE III inhibitory activity (Test Example 1). Format: biochemical. To be noted: for pIC50: Table I, PDE III partially purified from rat blood platelets, 3H-cAMP substrate; for PDE III inhibitory activity relative to that of the racemate: ratio to racemate. The procedure:
as §1, §2

[3] abbreviates: Table I, PDE IV partially purified from rat neutrophils.
Where [4] appears, read: Table II, PDE IV from rat neutrophils.
Setting [5] is: listed as The compound of the present invention.

What is called pIC50 is the negative decadic logarithm of the IC50, by convention in mol/L. High values mean a small IC50, low ones a large IC50. As for `COc1ccc(NC2=C(C)C(=O)CC2)cc1O[C@@H]1C[C@H]2CC[C@@H]1C2` [(−)-isomer, (−)-3-[3-[(1R,2R,4S)-bicyclo[2.2.1]hept-2-yloxy]-4-methoxyanilino]-2-methyl-2-cyclopenten-1-one], the “selectivity with respect to PDE IV” value in the assay with Type IV PDE [1] is recorded as “high”. The results for the pIC50 with Type IV PDE [2] (setting [3]), in the assay with Type IV PDE [2] (setting [4]) and on Type III PDE were 6.92, 6.92 and 5.04, respectively. Besides, the “PDE IV inhibitory activity relative to that of the racemate” value in the assay on Type IV PDE [2] is recorded as “about twice that of the racemate”; in the assay with Type IV PDE [2] (setting [5]), “at least two times that of a racemate”. Also, the “PDE III inhibitory activity relative to that of the racemate” value on Type III PDE is recorded as “less than half of that of the racemate”; on Type III PDE (setting [5]), “less than ½”.

With `COc1ccc(NC2=C(C)C(=O)CC2)cc1O[C@H]1C[C@@H]2CC[C@H]1C2` [(+)-isomer, (+)-3-[3-[(1S,2S,4R)-bicyclo[2.2.1]hept-2-yloxy]-4-methoxyanilino]-2-methyl-2-cyclopenten-1-one], the “selectivity with respect to PDE IV” value with Type IV PDE [1] is “low”. Moreover, the pIC50 with Type IV PDE [2] (setting [3]) was 6.44; in the assay on Type IV PDE [2] (setting [4]), 6.44; on Type III PDE it was 5.80. The “PDE IV inhibitory activity relative to that of the racemate” value in the assay on Type IV PDE [2] was “about ¾”. At Type III PDE, the “PDE III inhibitory activity relative to that of the racemate” value was “twice or more of that of the racemate”.

As for `COc1ccc(NC2=C(C)C(=O)CC2)cc1O[C@@H]1C[C@H]2CC[C@@H]1C2` (racemic) [(±)-isomer, (±)-3-[3-[(1RS,2RS,4SR)-bicyclo[2.2.1]hept-2-yloxy]-4-methoxyanilino]-2-methyl-2-cyclopenten-1-one, reference compound], the pIC50 in the assay on Type IV PDE [2] (setting [3]) is 6.57; in the assay on Type IV PDE [2] (setting [4]), 6.57; at Type III PDE it was 5.41.
